# Experimental data as given in paper PMC6587565 (Diabetes, Obesity & Metabolism, 2018).
# Like-named read-outs stand apart in the source and are kept apart here.
# Tests used:
# [1] = tested on: patients with type 1 diabetes mellitus; test: Safety: adverse events, hypoglycaemic episodes, local tolerability; format: in vivo, human
# [2] = tested on: plasma glucose (PG) in patients with type 1 diabetes mellitus; format: in vivo, human; conditions: for AUE0-30min / AUE0-240min (area under plasma glucose excursions above baseline) / CE30min (plasma glucose excursion at 30 minutes) / CEmax (maximum plasma glucose excursion) / tCEmax (time to maximum plasma glucose excursion) / tPG increase ≥ 20 mg/dL (time to increase in plasma glucose ≥[…]) / tPG ≥70 mg/dL (time to reach plasma glucose ≥[…]): T1DM patients; for AUE0-30min / AUE0-240min (area under plasma glucose excursions above baseline) / CE30min (plasma glucose excursion at 30 minutes) / CEmax (maximum plasma glucose excursion): mean (SD), SD; for tCEmax (time to maximum plasma glucose excursion) / tPG increase ≥ 20 mg/dL (time to increase in plasma glucose ≥[…]) / tPG ≥70 mg/dL (time to reach plasma glucose ≥[…]): median (range)
# [3] = format: in vivo, human
# [4] = euglycaemia, single s.c. dose 0.6 mg, N=17
# [5] = hypoglycaemia, single s.c. dose 0.03 mg, N=17
# [6] = hypoglycaemia, single s.c. dose 0.08 mg, N=17
# [7] = hypoglycaemia, single s.c. dose 0.2 mg, N=17
# [8] = hypoglycaemia, single s.c. dose 0.6 mg, N=17
# [9] = hypoglycaemia, single s.c. dose 0.03 mg, T1DM patients, mean (SD), N=14, SD
smiles,measurement,setting,value
"CC(C)C[C@H](NC(=O)[C@H](Cc1c[nH]c2ccccc12)NC(=O)[C@H](CCCCN)NC(=O)[C@@H](NC(=O)[C@H](Cc1ccccc1)NC(=O)[C@H](CCC(=O)O)NC(=O)[C@H](CCC(=O)O)NC(=O)[C@H](C)NC(=O)[C@H](CCCNC(=N)N)NC(=O)[C@H](C)NC(=O)C(C)(C)NC(=O)[C@H](CC(=O)O)NC(=O)[C@H](CC(C)C)NC(=O)[C@H](Cc1ccc(O)cc1)NC(=O)[C@H](CCCCN)NC(=O)[C@H](CO)NC(=O)[C@H](Cc1ccc(O)cc1)NC(=O)[C@H](CC(=O)O)NC(=O)[C@H](CO)NC(=O)[C@@H](NC(=O)[C@H](Cc1ccccc1)NC(=O)[C@@H](NC(=O)CNC(=O)[C@H](CCC(N)=O)NC(=O)[C@H](CO)NC(=O)[C@@H](N)Cc1c[nH]cn1)[C@@H](C)O)[C@@H](C)O)C(C)C)C(=O)N[C@@H](CCC(=O)O)C(=O)N[C@@H](CO)C(=O)N[C@H](C(=O)O)[C@@H](C)O [Dasiglucagon, dasiglucagon]",Total hypoglycaemic events,"[1]; 17 completers, range of small doses (0.03-0.2 mg)",18
same,Overall safety and tolerability,[1]; all doses (0.03-0.6 mg s.c.),safe and well tolerated
same,Median time (range) to an increase in PG of at least […] (20 mg/dL),"[2]; 0.03 mg s.c., at both euglycaemia and hypoglycaemia",< 20 (18‐19.5) minutes
same,AUE0-30min,[2]; [4],18.3 (5.25) mg*h/dL
same,AUE0-240min (area under plasma glucose excursions above baseline),[2]; [4],479 (159) mg*h/dL
same,CE30min (plasma glucose excursion at 30 minutes),[2]; [4],79.8 (23.4) mg/dL
same,CEmax (maximum plasma glucose excursion),[2]; [4],165 (46.1) mg/dL
same,tCEmax (time to maximum plasma glucose excursion),[2]; [4],90.0 (70‐240) min
same,tPG increase ≥ 20 mg/dL (time to increase in plasma glucose ≥[…]),[2]; [4],10.0 (8‐14) min
same,Patients achieving a PG level of at least […] within 30 minutes post-dose,"[2]; hypoglycaemia, dose levels of 0.08 mg and above",100%
same,Patients achieving a PG level of at least […] within 30 minutes post-dose,"[2]; hypoglycaemia, lowest dose level (0.03 mg)",70.6%
same,AUE0-30min,[2]; [5],4.60 (5.24) mg*h/dL
same,AUE0-240min (area under plasma glucose excursions above baseline),[2]; [5],70.6 (100) mg*h/dL
same,CE30min (plasma glucose excursion at 30 minutes),[2]; [5],23.7 (24.9) mg/dL
same,CEmax (maximum plasma glucose excursion),[2]; [5],37.9 (38.9) mg/dL
same,tPG increase ≥ 20 mg/dL (time to increase in plasma glucose ≥[…]),"[2]; hypoglycaemia, single s.c. dose 0.03 mg, N=10",19.5 (12‐42) min
same,tPG ≥70 mg/dL (time to reach plasma glucose ≥[…]),"[2]; hypoglycaemia, single s.c. dose 0.03 mg, N=13",14.0 (5‐37) min
same,tCEmax (time to maximum plasma glucose excursion),[2]; [5],50.0 (0‐90) min
same,AUE0-30min,[2]; [6],14.3 (10.1) mg*h/dL
same,AUE0-240min (area under plasma glucose excursions above baseline),[2]; [6],249 (201) mg*h/dL
same,CE30min (plasma glucose excursion at 30 minutes),[2]; [6],63.9 (38.6) mg/dL
same,CEmax (maximum plasma glucose excursion),[2]; [6],106 (61.1) mg/dL
same,tCEmax (time to maximum plasma glucose excursion),[2]; [6],70.0 (50‐90) min
same,tPG increase ≥ 20 mg/dL (time to increase in plasma glucose ≥[…]),[2]; [6],14.0 (7‐48) min
same,tPG ≥70 mg/dL (time to reach plasma glucose ≥[…]),[2]; [6],10.0 (2‐27) min
same,AUE0-30min,[2]; [7],19.0 (6.43) mg*h/dL
same,AUE0-240min (area under plasma glucose excursions above baseline),[2]; [7],406 (175) mg*h/dL
same,CE30min (plasma glucose excursion at 30 minutes),[2]; [7],86.8 (27.2) mg/dL
same,CEmax (maximum plasma glucose excursion),[2]; [7],154 (48.4) mg/dL
same,tCEmax (time to maximum plasma glucose excursion),[2]; [7],90.0 (70‐150) min
same,tPG increase ≥ 20 mg/dL (time to increase in plasma glucose ≥[…]),[2]; [7],11.0 (8‐20) min
same,tPG ≥70 mg/dL (time to reach plasma glucose ≥[…]),[2]; [7],6.0 (5‐11) min
same,AUE0-30min,[2]; [8],21.9 (5.68) mg*h/dL
same,AUE0-240min (area under plasma glucose excursions above baseline),[2]; [8],535 (187) mg*h/dL
same,CE30min (plasma glucose excursion at 30 minutes),[2]; [8],94.2 (21.9) mg/dL
same,CEmax (maximum plasma glucose excursion),[2]; [8],192 (54.1) mg/dL
same,tCEmax (time to maximum plasma glucose excursion),[2]; [8],90.0 (70‐150) min
same,tPG increase ≥ 20 mg/dL (time to increase in plasma glucose ≥[…]),[2]; [8],9.00 (8‐14) min
same,tPG ≥70 mg/dL (time to reach plasma glucose ≥[…]),[2]; [8],6.0 (2‐8) min
same,AUC0-inf,"[3]; euglycaemia, single s.c. dose 0.6 mg, T1DM patients, mean (SD), N=17, SD",3710 (585) pmol*h/L
same,Tmax,"[3]; euglycaemia, single s.c. dose 0.6 mg, T1DM patients, median (range), N=17",0.5 (0.25‐1) h
same,Tmax,"[3]; human, plasma, sc, 0.03 mg",30 min
same,CL/F,"[3]; human, plasma, sc, 0.03 mg, SD",863 mL/min
same,half-life,"[3]; human, plasma, sc, 0.03 mg, SD",22.9 min
same,Tmax,"[3]; human, plasma, sc, 0.08 mg",30 min
same,CL/F,"[3]; human, plasma, sc, 0.08 mg, SD",688 mL/min
same,half-life,"[3]; human, plasma, sc, 0.08 mg, SD",28.4 min
same,Tmax,"[3]; human, plasma, sc, 0.2 mg",30 min
same,half-life,"[3]; human, plasma, sc, 0.2 mg, SD",33.9 min
same,Tmax,"[3]; human, plasma, sc, 0.6 mg",30 min
same,AUC0-inf,[3]; [9],182 (45.9) pmol*h/L
same,CL/f (total body clearance),[3]; [9],52.6 (16.7) L/h
same,AUC0-240min,"[3]; hypoglycaemia, single s.c. dose 0.03 mg, T1DM patients, mean (SD), N=17, SD",174 (43.1) pmol*h/L
same,Tmax,"[3]; hypoglycaemia, single s.c. dose 0.03 mg, T1DM patients, median (range), N=17",0.5 (0.25‐1) h
same,t1/2 (terminal elimination half-life),"[3]; hypoglycaemia, single s.c. dose 0.08 mg, T1DM patients, mean (SD), N=16, SD",0.472 (0.154) h
same,Tmax,"[3]; hypoglycaemia, single s.c. dose 0.08 mg, T1DM patients, median (range), N=17",0.5 (0.25‐1) h
